The assay addresses T1, human ASK1 (Homo sapiens, UniProt Q99683).
T1 construct: a 2.2 kb DNA fragment containing an ASK1 gene was recovered from the gel; made in house; host or cells: Sf-21 insect cells, recombinant baculovirus (pFASTBAC1, Bac-to-Bac)
T1 sequence (Q99683 649-1374 limits assumed): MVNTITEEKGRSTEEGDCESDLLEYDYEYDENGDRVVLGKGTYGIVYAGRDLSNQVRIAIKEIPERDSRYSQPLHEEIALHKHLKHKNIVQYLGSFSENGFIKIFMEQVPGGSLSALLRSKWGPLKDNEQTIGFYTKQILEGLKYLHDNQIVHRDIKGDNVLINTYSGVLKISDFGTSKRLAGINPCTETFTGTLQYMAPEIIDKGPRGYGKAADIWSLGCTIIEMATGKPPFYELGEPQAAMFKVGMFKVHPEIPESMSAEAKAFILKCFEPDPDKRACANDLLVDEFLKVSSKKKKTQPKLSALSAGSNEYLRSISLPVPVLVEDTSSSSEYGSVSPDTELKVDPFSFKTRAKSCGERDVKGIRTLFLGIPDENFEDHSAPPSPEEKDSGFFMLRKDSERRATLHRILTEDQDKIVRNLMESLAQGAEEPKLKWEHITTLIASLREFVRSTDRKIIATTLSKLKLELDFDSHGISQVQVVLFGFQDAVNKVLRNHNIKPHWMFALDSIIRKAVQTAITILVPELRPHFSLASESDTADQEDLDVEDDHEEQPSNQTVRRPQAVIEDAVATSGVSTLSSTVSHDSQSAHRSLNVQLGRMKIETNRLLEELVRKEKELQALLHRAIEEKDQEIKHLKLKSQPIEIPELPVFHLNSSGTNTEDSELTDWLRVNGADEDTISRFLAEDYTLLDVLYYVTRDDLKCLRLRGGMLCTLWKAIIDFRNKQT
The assay is described as follows: Scintillation assay measuring inhibition of ASK1 phosphorylation of myelin basic protein. The assay is classed as biochemical. Particulars: active ASK1 protein 30 ng, myelin basic protein 1 μg, [γ-32P]ATP, room temperature 30 min; values given as ranges; read-out: Enzyme Activity IC50.

Each structure is given as a SMILES string.

As for `CC(C)(C)c1ccc(C(=O)Nc2cc(N3CCCC(C(N)=O)C3)n3nccc3n2)cc1` (stereo not drawn) [Compound 104, 1-(5-(4-tert-butylbenzamido)pyrazolo[1,5-a]pyrimidin-7-yl)piperidine-3-carboxamide], the IC50 was less than 0.1 µM.

Regarding `CC(C)(O)c1ccc(C(=O)Nc2cc(-c3ccoc3)n3nccc3n2)cc1` [Compound 18, N-(7-(Furan-3-yl)pyrazolo[1,5-a]pyrimidin-5-yl)-4-(2-hydroxypropan-2-yl)benzamide], the half-inhibitory concentration (IC50) is 0.1 to 1 µM.

For `CC(C)(O)c1ccc(C(=O)Nc2cc(N3CCCC3)n3nccc3n2)cc1` [Compound 87, 4-(2-hydroxypropan-2-yl)-N-(7-(pyrrolidin-1-yl)pyrazolo[1,5-a]pyrimidin-5-yl)benzamide], the half-inhibitory concentration (IC50) is less than 0.1 µM.
